# Experimental data reported in US20070299087A1, “New Compounds 319” (AstraZeneca AB, priority 2006, published 2007).
# Target: T1, human β-Secretase (sBACE-Fc) (Homo sapiens, UniProt P56817)
# T1 construct: The soluble part of the human β-Secretase (AA 1-AA 460) was cloned; Fc domain of IgG1 (C); made in house
# Test: TR-FRET assay (β-secretase enzyme, substrate (Europium)[…](Qsy7))
# Assay type: biochemical
# Protocol: The enzyme used in the IGEN Cleavage-, Fluorescent-, TR-FRET- and BiaCore assays is described as follows:
# The soluble part of the human β-Secretase (AA 1-AA 460) was cloned into the ASP2-Fc10-1-IRES-GFP-neoK mammalian expression vector. The gene was fused to the Fc domain of IgG1 (affinity tag) and stably cloned into HEK 293 cells. Purified sBACE-Fc is stored in Tris buffer, pH 9.2 and has a purity of 95%.
# Enzyme was diluted to 6 μg/mL and the substrate (Europium)[…](Qsy7) to 200 nM in reaction buffer (NaAcetate, chaps, triton x-100, EDTA pH 4.5). Compounds were diluted to the desired concentration in dimethyl sulfoxide (final dimethyl sulfoxide concentration in assay is 5%). The assay was done in a Costar 384 well round bottom, low volume, non-binding surface plate (Corning #3676). Enzyme (9 μL) and 1 μL of compound in dimethyl sulfoxide was added to the plate, mixed and pre-incubated for 10 min. Substrate (10 μL) was added and the reaction proceeded in the dark for 15 min at RT. The reaction was stopped with the addition of 7 μL NaAcetate, pH 9. The fluorescence of the product was measured on a Victor II plate reader with an excitation wavelength of 340 nm and an emission wavelength of 615 nm. […] The dimethyl sulfoxide control defined the 100% activity level and 0% activity was defined by exclusion of the enzyme (using reaction buffer instead).
# T1 sequence (P56817 22-460): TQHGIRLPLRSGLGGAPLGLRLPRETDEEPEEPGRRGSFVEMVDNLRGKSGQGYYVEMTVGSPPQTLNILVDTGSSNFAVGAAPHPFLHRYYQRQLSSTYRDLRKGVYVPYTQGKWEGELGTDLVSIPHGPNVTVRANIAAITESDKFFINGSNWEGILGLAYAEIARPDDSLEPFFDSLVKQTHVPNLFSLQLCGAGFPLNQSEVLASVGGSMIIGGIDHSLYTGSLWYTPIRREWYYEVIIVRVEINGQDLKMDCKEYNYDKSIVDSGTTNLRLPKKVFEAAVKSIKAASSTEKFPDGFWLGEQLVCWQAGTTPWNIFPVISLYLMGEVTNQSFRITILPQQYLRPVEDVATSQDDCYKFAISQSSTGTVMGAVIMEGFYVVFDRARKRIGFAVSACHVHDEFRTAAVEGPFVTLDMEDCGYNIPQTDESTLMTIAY
row,IC50,SMILES
1,0.068 µM,"COc1cccc(-c2cccc(C3(c4ccncc4)N=C(N)N4CC(F)(F)CN=C43)c2)c1 (stereo not shown) [Example 72, 3,3-Difluoro-8-(3′-methoxybiphenyl-3-yl)-8-pyridin-4-yl-2,3,4,8-tetrahydroimidazo[1,5-a]pyrimidin-6-amine 1.25 acetate]"
2,0.061 µM,"NC1=NC(c2ccncc2)(c2cccc(-c3cc(Cl)cnc3F)c2)C2=NCC(F)(F)CN12 (stereo not shown) [Example 73, 3,3-Difluoro-8-[3-(5-Chloro-2-fluoropyridin-3-yl)phenyl]-8-pyridin-4-yl-2,3,4,8-tetrahydroimidazo[1,5-a]pyrimidin-6-amine acetate]"
3,0.049 µM,"NC1=NC(c2ccncc2)(c2ccc(F)c(-c3cccnc3F)c2)C2=NCC(F)(F)CN12 (stereo not shown) [Example 81, 3,3-Difluoro-8-[4-fluoro-3-(2-fluoropyridin-3-yl)phenyl]-8-pyridin-4-yl-2,3,4,8-tetrahydroimidazo[1,5-a]pyrimidin-6-amine acetate]"
4,0.042 µM,"COc1cccc(-c2cc(C3(c4ccncc4)N=C(N)N4CC(F)(F)CN=C43)ccc2F)c1F (stereo not shown) [Example 82, 3,3-Difluoro-8-(2′,6-difluoro-3′-methoxybiphenyl-3-yl)-8-pyridin-4-yl-2,3,4,8-tetrahydroimidazo[1,5-a]pyrimidin-6-amine acetate]"
5,0.048 µM,"COc1cncc(-c2cc(C3(c4ccncc4)N=C(N)N4CC(F)(F)CN=C43)ccc2F)c1 (stereo not shown) [Example 83, 3,3-Difluoro-8-[4-fluoro-3-(5-methoxypyridin-3-yl)phenyl]-8-pyridin-4-yl-2,3,4,8-tetrahydroimidazo[1,5-a]pyrimidin-6-amine 0.5 acetate]"
6,0.29 µM,"NC1=NC(c2cccc(-c3cccnc3F)c2)(c2ccncc2F)C2=NCC(F)(F)CN12 (stereo not shown) [Example 90, 3,3-Difluoro-8-(3-fluoropyridin-4-yl)-8-[3-(2-fluoropyridin-3-yl)phenyl]-2,3,4,8-tetrahydroimidazo[1,5-a]pyrimidin-6-amine]"
7,0.44 µM,"NC1=NC(c2cccc(-c3cncnc3)c2)(c2ccncc2F)C2=NCC(F)(F)CN12 (stereo not shown) [Example 91, 3,3-Difluoro-8-(3-fluoropyridin-4-yl)-8-(3-pyrimidin-5-ylphenyl)-2,3,4,8-tetrahydroimidazo[1,5-a]pyrimidin-6-amine]"
